Measured values published in paper doi:10.1101/2024.03.13.583470v1, “SARS-CoV-2 methyltransferase nsp10-16 in complex with natural and drug-like purine analogs for guiding structure-based drug discovery” (biorxiv, 2024).

Biological target: T1, nsp10-16 (Severe acute respiratory syndrome coronavirus 2, UniProt P0DTD1)
T1 construct: gene rep
Assay: X-ray crystallography, soaking
Format: binding
Conditions: SAM site, fully replaces SAM; 10 mM soak, pH 6.5

SMILES | X-ray crystallography, soaking
N#Cc1cn([C@@H]2O[C@H](CO)[C@@H](O)[C@H]2O)c2ncnc(N)c12 [toyocamycin] | toyocamycin, sangivamycin and 5-iodotubercidin share the same orientation as tubercidin
Nc1ncnc2c1c(I)cn2[C@@H]1O[C@H](CO)[C@@H](O)[C@H]1O [5-iodotubercidin] | toyocamycin, sangivamycin and 5-iodotubercidin share the same orientation as tubercidin
